According to paper PMC6155365, “A Phase 3 Study of Micafungin Versus Amphotericin B Deoxycholate in Infants With Invasive Candidiasis” (The Pediatric Infectious Disease Journal, 2018):
Values after ≈ are worked out from the molar mass of the structure shown. Where two headings read alike, the source gives them in different places. *1 amine or outer side, *2 acyl side, *3 side chain or, on linkers, in order; H or OH if unused. Where a SMILES comes first, the peptide text is derived from it. Bridges are numbered along the chain shown (N, C = ends). [ ]: non-standard residue; d: D form. The star is where a group is joined. hTyr(3S-OH,4S-OH,3'-OSO3H) = N[C@H](C(=O)O)[C@H](O)[C@@H](O)c1ccc(O)c(OS(=O)(=O)O)c1; Orn(4R-OH,5R-OH) = O=C([C@H](C[C@@H](O)[C@@H](O)N[*:3])N[*:1])[*:2]; Pro(3S-OH,4S-Me) = C[C@H]1CN[C@H](C(=O)O)[C@H]1O; X1 = CCCCCOc1ccc(-c2cc(-c3ccc(C(=O)*)cc3)no2)cc1; Gln(3R-OH) = NC(=O)C[C@@H](O)[C@H](N)C(=O)O; Hyp = O=C(O)[C@@H]1C[C@@H](O)CN1

What was measured:
[1] = Clinical laboratory test findings, safety analysis set; type: in vivo, infants; settings: postbaseline increase from baseline
C. glabrata [2] = assay: In vitro susceptibility MIC, CLSI M27-A3; type: cell-based, Candida glabrata; settings: Nakaseomyces glabratus; baseline isolate, persistent infection in AmB-D group
Experimental: (§1) All fungal isolates were identified to the genus and species level using standard techniques. Briefly, each isolate was subcultured in CHROMagar Candida (Becton Dickinson and Company, Sparks, MD) and molecular identification by sequencing of the internal transcribed spacer region and/or 28S ribosomal subunit. In vitro susceptibility testing was performed on all fungal isolates collected during the study to calculate the minimum inhibitory concentrations (MICs) according to Clinical Laboratory Standards Institutes (CLSI) methodology (M27-A3) and European Committee on Antimicrobial Susceptibility Testing (EUCAST) methodology (EDef7.1).[24],[25]

C. albicans [3] = assay: In vitro susceptibility MIC, EUCAST EDef7.1; type: cell-based, Candida albicans; settings: for MIC: Candida albicans
Experimental: as §1

C. albicans [4] = assay: In vitro susceptibility MIC, CLSI M27-A3; type: cell-based; settings: Candida albicans
Experimental: as §1

C. glabrata [5] = assay: In vitro susceptibility MIC, EUCAST EDef7.1; type: cell-based, Candida glabrata; settings: Nakaseomyces glabratus; baseline isolate, persistent infection in AmB-D group
Experimental: as §1

[6] = in vivo
[7] = system: Candida spp. (invasive candidiasis); assay: Phase 3 randomized double-blind study, efficacy in infants with proven invasive candidiasis (NCT00815516); type: in vivo; settings: for Early discontinuation of treatment: lack of efficacy / Infants alive at 1 week after last dose but not fungal free: MCA n = 20, AmB-D n = 10; for Positive clinical response: at end of study and 1 week after last dose, infants with signs at baseline (MCA 18, AmB-D 10); for Infants alive at 1 week after last dose but not fungal free: did not meet primary efficacy end point
Experimental: This was a phase 3, randomized, double-blind, multicenter, parallel-group, noninferiority study (ClinicalTrials.gov identifier: […] The follow-up was performed to capture emergent and recurrent fungal infections, to obtain a final safety evaluation and to check for resolution of those IC episodes that had not resolved by the end of treatment. […] An independent Data Review Panel reviewed and confirmed the diagnosis of IC and evaluated the efficacy outcome for each subject. Drug safety was evaluated by an unblinded Data Safety and Monitoring Board. […] FFS was defined as an infant alive and fungal free with no requirement for continued treatment with alternative antifungal therapy. […] Responses were defined as follows: complete response (resolution of all attributable signs related to fungal infection); partial response (improvement in attributable signs related to the fungal infection); stabilization (minor improvement or no change in attributable signs related to the fungal infection and the infant continued on therapy without deterioration); progression (deterioration in attributable signs related to the fungal infection or death presumably related to fungal infection). […] Persistence was defined by continued isolation or histologic documentation from a normally sterile site. […] Following positive Candida cultures, end-organ dissemination was assessed using abdominal ultrasound and/or computed tomography scanning, echocardiogram, head imaging with ultrasound, magnetic resonance imaging or computed tomography scanning or ophthalmoscopy. An emergent fungal infection was defined as a non-Candida invasive fungal infection detected at any time during the study or any invasive fungal infection detected >96 hours postbaseline involving a Candida spp. other than those detected at baseline.

[8] = Adverse events, safety analysis set; settings: for Early discontinuation of treatment: AEs / Electrolyte supplementation received: MCA n = 20, AmB-D n = 10; for Deaths: all deaths reported from the study; for Magnesium supplementation / Potassium supplementation: in vivo; for TEAE anemia / TEAE thrombocytopenia: irrespective of relatedness to study drug; for Drug-related TEAEs / Drug-related TEAEs leading to death / Drug-related serious TEAEs: possible or probable, as assessed by the investigator; for Serious TEAEs / TEAEs: safety analysis set; for TEAEs: MCA N = 20 (10 mg/kg/d), AmB-D N = 10 (1 mg/kg/d)
C. parapsilosis [9] = assay: In vitro susceptibility MIC, EUCAST EDef7.1; type: cell-based, Candida parapsilosis; settings: baseline isolate
Experimental: as §1

[10] = premature and nonpremature infants <2 years, 9 clinical trials; cited from earlier work
Text: There was a slightly greater degree of nephrotoxicity at >25% baseline caused by AmB-D, although AmB-D-induced nephrotoxicity, defined as elevated serum creatinine, in the infant is usually reversible.[37] In understanding the relative tolerability of AmB-D in infants within the neonatal intensive care unit compared with older children, there are several hypotheses, including a greater nephronal reserve or the attention to appropriate hy ...

[11] = adults, 100 mg/d (approximately 2 mg/kg); cited from earlier work
Text: AmB-D has been the standard of treatment for neonatal IC in the United States for many years,[7] but nephrotoxicity is a dose-limiting toxicity.[10] […] The use of fluconazole in infants may be limited because of the resistance of some Candida spp., its frequent use as prophylaxis in extremely premature infants, its poor activity against fungal biofilms and the high doses required to reach therapeutic concentrations.[9],[ ...

[12] = Population PK of MCA, linear 2-compartment model with body weight-based allometric scaling; type: in vivo; settings: Infants (this study), mean ± SD
Experimental: Up to 3 PK blood samples (≤300 µL) were collected from infants who participated in the PK portion of the study. A population PK approach was used to define the PK profile of MCA. A linear 2-compartment population PK model with body weight–based allometric scaling was developed in neonatal and pediatric patient populations by amending a previous model[19],[26] and including data from the current study in addition to 2 previous phase 1 studies and 1 previous phase 3 study in infants.[20],[27],[28] Individual post hoc estimates of PK parameters, simulated area under the curve (AUC) at steady state and maximum plasma concentration at the end of 2-hour infusion at once-daily dose of MCA 10 mg/kg were derived based on the model.
A population PK model was developed using data from this and 8 other studies (data on file at Astellas). A 2-compartment model with body weight–based allometric scaling and first-order elimination adequately described MCA PK data regardless of age. In this study, PK data were collected from 12 of 30 study participants (Table 2).

C. parapsilosis [13] = assay: In vitro susceptibility MIC, CLSI M27-A3; type: cell-based, Candida parapsilosis
Experimental: as §1

invasive candidiasis = settings: patients <16 years with IC; MCA 2 mg/kg, liposomal amphotericin B 3 mg/kg; cited from earlier work
Experimental: High rates of survival and successful treatment responses to MCA among patients <18 years of age with IC have been reported in prospective, observational studies.[32],[33] Success rates in pediatric studies are similar to the findings of our study in infants. For example, in a pediatric substudy from a randomized, double-blind study comparing MCA (2 mg/kg) with liposomal amphotericin B (3 mg/kg) in patients <16 years of age with IC, the investigators reported similar treatment success rates after MCA (defined as both a clinical and mycologic response at the end of therapy; 73% compared with 76 ...

[14] = 216 h, follow-up cultures on day 9, AmB-D group infant
[15] = baseline isolate, persistent infection in AmB-D group

| Compound | Early discontinuation of treatment: lack of efficacy [7] | Positive clinical response [7] [%] | Infants alive at 1 week after last dose but not fungal free [7] | Early discontinuation of treatment: AEs [8] | Electrolyte supplementation received [8] | TEAEs: Blood and lymphatic system disorders ([8]; MedDRA system organ class) | TEAEs: General disorders and administration site conditions ([8]; MedDRA system organ class) | TEAEs: Investigations ([8]; MedDRA system organ class) | TEAEs: Metabolism and nutrition disorders ([8]; MedDRA system organ class) | TEAEs: Respiratory, thoracic and mediastinal disorders ([8]; MedDRA system organ class) | TEAEs: Skin and subcutaneous tissue disorders ([8]; MedDRA system organ class) | TEAEs: Vascular disorders ([8]; MedDRA system organ class) | Deaths [8] | Magnesium supplementation [8] | Potassium supplementation [8] | TEAE anemia [8] | TEAE thrombocytopenia [8] | Drug-related TEAEs [8] | Drug-related TEAEs leading to death [8] | Drug-related serious TEAEs [8] | also measured |
| --- | --- | --- | --- | --- | --- | --- | --- | --- | --- | --- | --- | --- | --- | --- | --- | --- | --- | --- | --- | --- | --- |
| C[C@@H]1[C@H](O)[C@@H](C)/C=C/C=C/C=C/C=C/C=C/C=C/C=C/[C@H](O[C@@H]2O[C@H](C)[C@@H](O)[C@H](N)[C@@H]2O)C[C@@H]2O[C@](O)(C[C@@H](O)C[C@@H](O)[C@H](O)CC[C@@H](O)C[C@@H](O)CC(=O)O[C@H]1C)C[C@H](O)[C@H]2C(=O)O [AmB-D, Amphotericin B deoxycholate] | 1 (10%) n (%) | 70 | 2 (20%) n (%) | 3 (30%) n (%) | 5 (50%) n (%) | 6 (60) n (%) | 5 (50) n (%) | 3 (30) n (%) | 2 (20) n (%) | 3 (30) n (%) | 2 (20) n (%) | 3 (30) n (%) | 1 (10) n (%) | 2 (20%) n (%) | 3 (30%) n (%) | 3 (30%) n (%) | 3 (30%) n (%) | 5 (50) n (%) | 0 n (%) | 1 (10) n (%) | Serum creatinine increase >100% [1]: 0 n/N (%); MIC (C. glabrata [2]): 1 µg/mL (≈ 1.08 µM); MIC (C. albicans [3]; [14]): 0.25 µg/mL (≈ 0.271 µM); MIC (C. albicans [3]; [15]): 0.5 µg/mL (≈ 0.541 µM); MIC, EUCAST (C. albicans [3]; follow-up cultures on day 9, AmB-D group infant): 0.5 µg/mL (≈ 0.541 µM); MIC (C. albicans [4]; [14]): 1 µg/mL (≈ 1.08 µM); MIC (C. albicans [4]; [15]): 1 µg/mL (≈ 1.08 µM); MIC (C. glabrata [5]): 0.5 µg/mL (≈ 0.541 µM); TEAEs: Infections and infestations [6]: 3 (30) n (%); Clinical response: Partial ([7]; at 1 week after last dose of study drug, infants with signs at baseline): 0 n/N (%); Clinical response: Partial ([7]; end of study (30 days after last dose)): 0 n/N (%); Emergent fungal infections through end of study ([7]; full analysis set): 0 n/N (%); Serious TEAEs [8]: 7 (70) n (%); TEAEs [8]: 9 (90) n (%) |
| CCCCCOc1ccc(-c2cc(-c3ccc(C(=O)N[C@H]4C[C@@H](O)[C@@H](O)NC(=O)[C@@H]5[C@@H](O)[C@@H](C)CN5C(=O)[C@H]([C@H](O)CC(N)=O)NC(=O)[C@H]([C@H](O)[C@@H](O)c5ccc(O)c(OS(=O)(=O)O)c5)NC(=O)[C@@H]5C[C@@H](O)CN5C(=O)[C@H]([C@@H](C)O)NC4=O)cc3)no2)cc1 [MCA, micafungin] (X1-[Orn(4R-OH,5R-OH)]T[Hyp][hTyr(3S-OH,4S-OH,3'-OSO3H)][Gln(3R-OH)][Pro(3S-OH,4S-Me)]; lactam 1-C) | 1 (5%) n (%) | 61 | 5 (25%) n (%) | 3 (15%) n (%) | 6 (30%) n (%) | 10 (50) n (%) | 3 (15) n (%) | 5 (25) n (%) | 1 (5) n (%) | 0 n (%) | 1 (5) n (%) | 3 (15) n (%) | 3 (15) n (%) | 3 (15%) n (%) | 2 (10%) n (%) | 9 (45%) n (%) | 2 (10%) n (%) | 11 (55) n (%) | 0 n (%) | 6 (30) n (%) | MCA MIC, EUCAST (C. parapsilosis [9]; persistent infection 1 of 2 in MCA group): 1 µg/mL; MCA MIC, EUCAST (C. parapsilosis [9]; the other persistent infection in MCA group): 0.5 µg/mL; Treatment-related TEAEs, patients [10]: 23%; Mean exposure (AUC) [11]: 100000 ng·h/mL; CL ([12]; N = 12, MCA 10 mg/kg iv, individual post hoc estimates): 0.068 ± 0.039 (0.022–0.147) L/h; CL ([12]; N = 12, MCA 10 mg/kg iv): 0.487 ± 0.200 (0.225–0.876) mL/min/kg; Vss ([12]; N = 12, MCA 10 mg/kg iv): 0.480 ± 0.159 (0.306–0.799) L/kg; t1/2 ([12]; N = 12, MCA 10 mg/kg iv): 12.25 ± 2.87 (7.51–16.92) h; AUCss ([12]; N = 12, simulated at 10 mg/kg once daily, 2-hour infusion): 399.32 ± 163.88 (190.33–742.30) μg·h/mL; C2h (steady-state plasma concentration at end of 2-hour infusion) ([12]; N = 12, simulated at 10 mg/kg, 2-hour infusion): 31.06 ± 10.53 (17.01–49.69) μg/mL; MCA MIC, CLSI (C. parapsilosis [13]; baseline isolate, persistent infection 1 of 2 in MCA group): 1 µg/mL; MCA MIC, CLSI (C. parapsilosis [13]; baseline isolate, the other persistent infection in MCA group): 1 µg/mL; MCA MIC, CLSI (C. parapsilosis [13]; follow-up isolates collected on day 19, both MCA-treated infants): 1 µg/mL; TEAEs: Infections and infestations ([8]; MedDRA system organ class): 11 (55) n (%); SAE anemia ([8]; most common SAE in the MCA group): 4 (20%) n (%); Serious TEAEs [8]: 12 (60) n (%); TEAEs [8]: 18 (90) n (%); Treatment success rate (clinical and mycologic response at end of therapy) (invasive candidiasis): 73% |
